Drawing on patent US5935995A, “Prodrugs for the therapy of tumors and inflammatory disorders” (Heochst Aktiengesellschaft, priority 1996, dated 1999), this text covers IC50 and stability in solution for five molecules.

Read-outs that look alike come from different tables or passages of the source.

The test system of series [1] is LoVo cells. Kind of series: Cytotoxicity on LoVo tumor cells in the presence and absence of β-glucuronidase (MTT). In kind it is cell-based.
Series [2] can be described thus: Stability in solution in anhydrous DMSO. In kind it is physicochemical. As for the experimental part:
The prodrug F 373 is stable in solution in anhydrous DMSO. To investigate the cleavability, […] of F 373 solution (5 mg/ml in DMSO) were treated with 180 ml of 0.02 M phosphate buffer pH 7.2 and 10 ml of E. coli β-glucuronidase (Sigma) (330 mg/ml) and the mixture was incubated at 37° C. 25 ml batches were diluted with 225 ml of 0.1 M phosphate buffer pH 3.0 (85%) and acetonitrile (15%) and immediately analyzed with the aid of the following HPLC system.

One may read the IC50 as the concentration that inhibits the measured activity by half. `CN(C(=O)Oc1ccc(N(CCCl)CCCl)cc1)c1cc([N+](=O)[O-])ccc1O[C@@H]1O[C@H](C(=O)O)[C@@H](O)[C@H](O)[C@H]1O` [F 373, 2-[N-Methyl-N-[4-(N,N'-bis(2-chloroethyl)amino)phenyloxycarbonyl]-amino]-4-nitrophenyl-β-D-glucuronic acid]: the results for the IC50 in series [1] (read-out: IC50 with β-gluc.) and in series [1] (read-out: IC50 without β-gluc.) were 6.3 µM and above 500 µM, respectively. Further, the stability in solution result in series [2] was “stable”.

Regarding `C=CC1CN2CCC1CC2C(OC(=O)N(C)c1cc([N+](=O)[O-])ccc1OC1OC(C(=O)O)C(O)C(O)C1O)c1ccnc2ccc(OC)cc12` (stereo not drawn) [F 391], the IC50 in series [1] (Homo sapiens, LoVo, 65 h, read-out: IC50 with β-gluc.) is 113 µM; in series [1] (Homo sapiens, LoVo, 65 h, read-out: IC50 without β-gluc.) it was above 400 µM.

For `CN(C(=O)OCCN(CCO)c1nc(N2CCCCC2)c2nc(N(CCO)CCO)nc(N3CCCCC3)c2n1)c1cc([N+](=O)[O-])ccc1O[C@@H]1O[C@H](C(=O)O)[C@@H](O)[C@H](O)[C@H]1O` [F 392], the half-inhibitory concentration (IC50) is 49.5 µM in series [1] (Homo sapiens, LoVo cells, 65 h, with β-glucuronidase (50 mg/mil final concentration), read-out: IC50 with β-gluc.) and above 400 µM in series [1] (Homo sapiens, LoVo cells, 65 h, without β-glucuronidase, read-out: IC50 without β-gluc.).

For the molecule `OCCN(CCO)c1nc(N2CCCCC2)c2nc(N(CCO)CCO)nc(N3CCCCC3)c2n1` [dipyridamole, reference compound], the half-maximal inhibitory concentration (IC50) in series [1] (Homo sapiens, LoVo, parent toxic compound tested alone, read-out: IC50 of the toxic compound tested alone) amounted to 43 µM.

For `C=C[C@H]1C[N@@]2CC[C@H]1C[C@H]2[C@H](O)c1ccnc2ccc(OC)cc12` [quinine, reference compound], in series [1] (Homo sapiens, LoVo, read-out: IC50 of the toxic compound tested alone), the IC50 was 103 µM.
